The text below walks through data of patent US11904020B2, “Bicyclic peptide ligands specific for TREM2” (Bicycle Tx Limited, priority 2021, dated 2024).

*1 amine or outer side, *2 acyl side, *3 side chain or, on linkers, in order; H or OH if unused. Where a SMILES comes first, the peptide text is derived from it. Bridges are numbered along the chain shown (N, C = ends). [ ]: non-standard residue; d: D form. TATA = O=C(CC[*:1])N1CN(C(=O)CC[*:2])CN(C(=O)CC[*:3])C1; 1Nal = N[C@@H](Cc1cccc2ccccc12)C(=O)O
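Also: Bio-layer interferometry in 50 mM HEPES pH 7.5 with 150 mM NaCl and 0.1% Tween, double-referenced with blank wells and unrelated-protein sensors, equilibrium response fitted versus concentration.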

In this experiment the target is TREM2 extracellular domain (ECD) (residues 19-131, C-terminally biotinylated, deglycosylated or glycosylated) (Homo sapiens, UniProt Q9NZC2). Put plainly: biochemical. The settings on record: Human BLI (Kd; nM) (deglycosylated), Table 4A; deglycosylated human TREM2 ECD; steady-state KD, 25° C.
Chain of TREM2 extracellular domain (ECD) (residues 19-131, C-terminally biotinylated, deglycosylated or glycosylated) (Q9NZC2 19-131): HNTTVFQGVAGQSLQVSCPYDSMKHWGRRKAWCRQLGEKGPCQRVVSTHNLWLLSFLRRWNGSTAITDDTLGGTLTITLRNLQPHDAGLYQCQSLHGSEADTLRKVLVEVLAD
Experimental: Bio-layer interferometry was performed on an Octet RED384® system (Sartorius) at 25° C. in a buffer containing 50 mM HEPES (pH 7.5), 150 mM NaCl and 0.1% Tween. TREM2 extracellular domain (ECD) (residues 19-131, C-terminally biotinylated, deglycosylated or glycosylated) was loaded onto Superstreptavidin biosensors (SSA, 18-5070, Sartorius) at 0.0125 mg/ml for 300 s. Bicycle peptides (10 mM in DMSO) were dispensed into 384-Well Tilted-Bottom Plates (18-5076, Sartorius) using an Echo liquid handler giving a final DMSO concentration of 0.125% in all wells including control wells. Association of defined concentrations of bicyclic peptide (0-12.5 μM, 1:2 dilutions for 7 points) was recorded over 120 s followed by dissociation in buffer over 120 s. Reference wells containing no bicycle peptides and reference sensors loaded with an unrelated protein (His-tagged MLLT3a) were subjected to the same assay protocol and double reference subtraction was used for processing to account for non-specific binding. Traces were analysed using Octet Software (Version 11.0). Association and dissociation curves were globally fit and the response at equilibrium (Req) plotted against concentration to obtain steady-state KD values.
For the compound `C[C@H](N)C(=O)N[C@H]1CSCCC(=O)N2CN3CN(C2)C(=O)CCSC[C@H](NC(=O)[C@H](Cc2ccc(O)cc2)NC(=O)[C@H](CCC(=O)O)NC(=O)[C@H](CO)NC1=O)C(=O)N[C@@H](Cc1ccccc1)C(=O)N[C@@H](Cc1c[nH]c2ccccc12)C(=O)N1CCC[C@H]1C(=O)N[C@@H](Cc1ccccc1)C(=O)N[C@@H](Cc1ccc(O)cc1)C(=O)N[C@@H](CO)C(=O)N[C@H](C(=O)N[C@@H](C)C(N)=O)CSCCC3=O` [BCY17669, A-(SEQ ID NO: 2)-A] (H-ACSEYCFWPFYSCA-NH2; linker 2-6-13 via TATA), the Kd worked out at 1200 nM. The compound `CC(=O)N[C@H]1CSCCC(=O)N2CN3CN(C2)C(=O)CCSC[C@H](NC(=O)[C@H](Cc2ccc(O)cc2)NC(=O)[C@H](CCC(=O)O)NC(=O)[C@H](CO)NC1=O)C(=O)N[C@@H](Cc1ccccc1)C(=O)N[C@@H](Cc1c[nH]c2ccccc12)C(=O)N1CCC[C@H]1C(=O)N[C@@H](Cc1ccccc1)C(=O)N[C@@H](Cc1ccc(O)cc1)C(=O)N[C@@H](Cc1c[nH]cn1)C(=O)N[C@H](C(N)=O)CSCCC3=O` [BCY18217, Ac-(SEQ ID NO: 1)] displayed a Kd of 900 nM.

The compound `CC(=O)N[C@@H](C)C(=O)N[C@H]1CSCCC(=O)N2CN3CN(C2)C(=O)CCSC[C@H](NC(=O)[C@H](Cc2ccc(O)cc2)NC(=O)[C@H](CCC(=O)O)NC(=O)[C@H](CO)NC1=O)C(=O)N[C@@H](Cc1ccccc1)C(=O)N[C@@H](Cc1c[nH]c2ccccc12)C(=O)N1CCC[C@H]1C(=O)N[C@@H](Cc1ccccc1)C(=O)N[C@@H](Cc1ccc(O)cc1)C(=O)N[C@@H](Cc1c[nH]cn1)C(=O)N[C@H](C(=O)N[C@@H](C)C(N)=O)CSCCC3=O` [BCY18218, Ac-A-(SEQ ID NO: 1)-A] (Ac-ACSEYCFWPFYHCA-NH2; linker 2-6-13 via TATA) showed a dissociation constant Kd of 2000 nM. In the case of `NC(=O)[C@@H]1CSCCC(=O)N2CN3CN(C2)C(=O)CCSC[C@H](N)C(=O)N[C@@H](CO)C(=O)N[C@@H](CCC(=O)O)C(=O)N[C@@H](Cc2ccc(O)cc2)C(=O)N[C@@H](CSCCC3=O)C(=O)N[C@@H](Cc2ccccc2)C(=O)N[C@@H](Cc2c[nH]c3ccccc23)C(=O)N2CCC[C@H]2C(=O)N[C@@H](Cc2ccccc2)C(=O)N[C@@H](Cc2ccc(O)cc2)C(=O)N[C@@H](Cc2c[nH]cn2)C(=O)N1` [BCY18219, SEQ ID NO: 1], binding was characterised by a dissociation constant (Kd) of 700 nM.

The compound `C[C@H](N)C(=O)N[C@H]1CSCCC(=O)N2CN3CN(C2)C(=O)CCSC[C@H](NC(=O)[C@H](Cc2ccc(O)cc2)NC(=O)[C@H](CCC(=O)O)NC(=O)[C@H](C)NC1=O)C(=O)N[C@@H](Cc1ccccc1)C(=O)N[C@@H](Cc1c[nH]c2ccccc12)C(=O)N1CCC[C@H]1C(=O)N[C@@H](Cc1ccccc1)C(=O)N[C@@H](Cc1ccc(O)cc1)C(=O)N[C@@H](Cc1c[nH]cn1)C(=O)N[C@H](C(=O)N[C@@H](C)C(N)=O)CSCCC3=O` [BCY18220, A-(SEQ ID NO: 24)-A] (H-ACAEYCFWPFYHCA-NH2; linker 2-6-13 via TATA) registered a dissociation constant Kd of 2000 nM.

Take `C[C@H](N)C(=O)N[C@H]1CSCCC(=O)N2CN3CN(C2)C(=O)CCSC[C@H](NC(=O)[C@H](Cc2ccc(O)cc2)NC(=O)[C@H](C)NC(=O)[C@H](CO)NC1=O)C(=O)N[C@@H](Cc1ccccc1)C(=O)N[C@@H](Cc1c[nH]c2ccccc12)C(=O)N1CCC[C@H]1C(=O)N[C@@H](Cc1ccccc1)C(=O)N[C@@H](Cc1ccc(O)cc1)C(=O)N[C@@H](Cc1c[nH]cn1)C(=O)N[C@H](C(=O)N[C@@H](C)C(N)=O)CSCCC3=O` [BCY18221, A-(SEQ ID NO: 25)-A] (H-ACSAYCFWPFYHCA-NH2; linker 2-6-13 via TATA): binding was characterised by a dissociation constant (Kd) of 1800 nM. `CC(=O)N[C@H]1CSCCC(=O)N2CN3CN(C2)C(=O)CCSC[C@H](NC(=O)[C@H](Cc2ccc(O)cc2)NC(=O)[C@H](CCC(=O)O)NC(=O)[C@H](CO)NC1=O)C(=O)N[C@@H](Cc1ccccc1)C(=O)N[C@@H](Cc1cccc2ccccc12)C(=O)N1CCC[C@H]1C(=O)N[C@@H](Cc1ccccc1)C(=O)N[C@@H](Cc1ccc(O)cc1)C(=O)N[C@@H](Cc1c[nH]cn1)C(=O)N[C@H](C(N)=O)CSCCC3=O` [BCY19669, Ac-(SEQ ID NO: 37)] (Ac-CSEYCF[1Nal]PFYHC-NH2; linker 1-5-12 via TATA): binding was characterised by a dissociation constant (Kd) of 2000 nM.

`CC(=O)N[C@H]1CSCCC(=O)N2CN3CN(C2)C(=O)CCSC[C@H](NC(=O)[C@H](Cc2ccc(O)cc2)NC(=O)[C@H](CCC(=O)O)NC(=O)[C@H](CO)NC1=O)C(=O)N[C@@H](Cc1ccccc1)C(=O)N[C@@H](Cc1c[nH]c2cc(Cl)ccc12)C(=O)N1CCC[C@H]1C(=O)N[C@@H](Cc1ccccc1)C(=O)N[C@@H](Cc1ccc(O)cc1)C(=O)N[C@@H](Cc1c[nH]cn1)C(=O)N[C@H](C(N)=O)CSCCC3=O` [BCY19671, Ac-(SEQ ID NO: 42)] yielded a Kd of 1000 nM. `C[C@H](N)C(=O)N[C@H]1CSCCC(=O)N2CN3CN(C2)C(=O)CCSC[C@H](NC(=O)[C@H](Cc2ccc(O)cc2)NC(=O)[C@H](Cc2ccc(O)cc2)NC(=O)[C@H](CO)NC1=O)C(=O)N[C@@H](Cc1ccccc1)C(=O)N[C@@H](Cc1c[nH]c2ccccc12)C(=O)N1CCC[C@H]1C(=O)N[C@@H](Cc1ccccc1)C(=O)N[C@@H](CCC(N)=O)C(=O)N[C@@H](CO)C(=O)N[C@H](C(=O)N[C@@H](C)C(N)=O)CSCCC3=O` [BCY19766, A-(SEQ ID NO: 8)-A] (H-ACSYYCFWPFQSCA-NH2; linker 2-6-13 via TATA; C-terminus assumed) registered a Kd of 1000 nM. `C[C@H](N)C(=O)N[C@H]1CSCCC(=O)N2CN3CN(C2)C(=O)CCSC[C@H](NC(=O)[C@H](Cc2ccc(O)cc2)NC(=O)[C@H](CO)NC(=O)[C@H]([C@@H](C)O)NC1=O)C(=O)N[C@@H](Cc1ccccc1)C(=O)N[C@@H](Cc1c[nH]c2ccccc12)C(=O)N1CCC[C@H]1C(=O)N[C@@H](Cc1ccccc1)C(=O)N[C@@H](Cc1ccc(O)cc1)C(=O)N[C@@H](CCC(N)=O)C(=O)N[C@H](C(=O)N[C@@H](C)C(N)=O)CSCCC3=O` [BCY19768, A-(SEQ ID NO: 10)-A] (H-ACTSYCFWPFYQCA-NH2; linker 2-6-13 via TATA; N-terminus and C-terminus assumed) showed a dissociation constant (Kd) of 900 nM.

`C[C@H](N)C(=O)N[C@H]1CSCCC(=O)N2CN3CN(C2)C(=O)CCSC[C@H](NC(=O)[C@H](Cc2ccc(O)cc2)NC(=O)[C@H](CC(N)=O)NC(=O)[C@H]([C@@H](C)O)NC1=O)C(=O)N[C@@H](Cc1ccccc1)C(=O)N[C@@H](Cc1c[nH]c2ccccc12)C(=O)N1CCC[C@H]1C(=O)N[C@@H](Cc1ccccc1)C(=O)N[C@@H](Cc1c[nH]c2ccccc12)C(=O)N[C@@H](CO)C(=O)N[C@H](C(=O)N[C@@H](C)C(N)=O)CSCCC3=O` [BCY19769, A-(SEQ ID NO: 11)-A] (H-ACTNYCFWPFWSCA-NH2; linker 2-6-13 via TATA) came in with a dissociation constant Kd of 920 nM. `C[C@H](N)C(=O)N[C@H]1CSCCC(=O)N2CN3CN(C2)C(=O)CCSC[C@H](NC(=O)[C@H](Cc2ccc(O)cc2)NC(=O)[C@H](CC(N)=O)NC(=O)[C@H](CO)NC1=O)C(=O)N[C@@H](Cc1ccccc1)C(=O)N[C@@H](Cc1c[nH]c2ccccc12)C(=O)N1CCC[C@H]1C(=O)N[C@@H](Cc1ccccc1)C(=O)N[C@@H](Cc1c[nH]c2ccccc12)C(=O)N[C@@H](CCC(N)=O)C(=O)N[C@H](C(=O)N[C@@H](C)C(N)=O)CSCCC3=O` [BCY19770, A-(SEQ ID NO: 12)-A] (H-ACSNYCFWPFWQCA-NH2; linker 2-6-13 via TATA; N-terminus and C-terminus assumed) yielded a dissociation constant Kd of 1800 nM.
